Measurements: article PMC7463913, “The Interaction of Fluorinated Glycomimetics with DC-SIGN: Multiple Binding Modes Disentangled by the Combination of NMR Methods and MD Simulations” (Pharmaceuticals, 2020)

Target: T1, DC-SIGN (ECD) (Homo sapiens, UniProt Q9NNX6)
T1 construct: DC-SIGN full extracellular domain (ECD, residues 70-404, Thermo Fischer Scientific); made in house
T1 sequence (Q9NNX6 70-404): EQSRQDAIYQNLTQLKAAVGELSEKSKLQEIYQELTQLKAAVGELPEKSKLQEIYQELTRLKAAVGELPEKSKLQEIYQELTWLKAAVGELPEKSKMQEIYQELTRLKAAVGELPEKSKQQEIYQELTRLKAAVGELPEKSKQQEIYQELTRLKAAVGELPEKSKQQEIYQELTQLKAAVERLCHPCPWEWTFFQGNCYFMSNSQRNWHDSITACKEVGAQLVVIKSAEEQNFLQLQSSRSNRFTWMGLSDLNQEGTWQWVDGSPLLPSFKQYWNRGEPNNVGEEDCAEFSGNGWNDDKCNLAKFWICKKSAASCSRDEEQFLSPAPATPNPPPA
Test: competitive 19F-R2 filtered NMR experiments (spy molecule 6-F-ManαOMe)
Type: binding
Settings: non-linear least squares fitting; [6-F-ManαOMe] 400 µM, [DC-SIGN (CRDs)] 10 µM; 298 K, pH 8.0
From the text: In order to gain insights into the effects that the different fluorination patterns may have in the binding event, the affinities of 1b, the natural analogue of 1, as well as 1c and 1d, two partially fluorinated trisaccharides, were also estimated. (Table 2, Figure S1).
For KD estimation of 6-deoxy-6-F-Man (the spy-molecule), the free evolution delay was set to an optimized value τ=1 ms , after using relaxation dispersion experiments to assure a negligible chemical exchange contribution to R2,obs (Figure S1a). The KI of 1, 1b-d, 2, and 3 with DC-SIGN (ECD) was determined by titration experiments in a competitive fashion. Increasing amounts of the competitor molecules (compounds 1, 1b-d, 2, and 3) were added to a solution mixture of the spy molecule and the protein in each case, calculating the R2,obs of the spy molecule at each competitor concentration while the ratio [Spy-molecule]/[Protein] is fixed (40:1) (Figure S1c).
19F-R2 filtered experiments
The KD of compounds 1, 1b-d, 2 and 3 was estimated applying a 19F-R2 filtered approach. 6-F-ManαOMe, which weakly binds to DC-SIGN, was selected as the spy molecule. Relaxation rates R2 were determined employing a CPMG pulse sequence, by fitting the observed 19F signal intensity to the exponential decay curve:
ܫ(ݐ) = ܫ଴݁ି௧ோమ = ܫ଴݁ି௡ଶఛோమ (1) where ܫ(ݐ) refers to intensity at time ݐ, ܫ଴ is intensity at ݐ = 0, and ܴଶ is the transversal relaxation rate (ܴଶ = 1/ܶଶ).
In the limit of fast-exchange where the exchange contribution to the observed transversal relaxation rate ܴଶ,௢௕௦ is insignificant (Figure S1, a)), the following equations apply:
ܴଶ,௢௕௦ = ܴଶ,௙ + ൫ܴଶ,௕ − ܴଶ,௙൯݌௕ (2)
[ܲ]் + [ܮ]் + ܭ஽ − ඥ([ܲ]் + [ܮ]் + ܭ஽)ଶ − 4[ܲ]்[ܮ]் (3) where [ܲ]் and [ܮ]் are the total protein and ligand concentrarion respectively, [ܴ]ଶ,௙ and [ܴ]ଶ,௕ are the relaxation rates in the free and bound states, ݌௕ is the fraction of bound ligand and ܭ஽ the dissociation constant of the protein-ligand complex. [ܴ]ଶ,௙ of 6-F-ManαOMe was measured in absence of the lectin, and Equation 2 was used to estimate ܭ஽and [ܴ]ଶ,௕ for the […]
Then, ܭூ of compounds 1, 1b-d, 2 and 3 was measured in a competitive manner. ܴଶ,௢௕௦ of 6-F-ManαOMe (spy molecule) in solution with DC-SIGN ECD was monitored at 5 different competitor concentrations ([ܫ]) in each case with a fixed [ܲ]்/[ܮ]் ratio (Figure S1, c)), to derive ܭூ by fitting to Equation 2 with ݌௕ as defined in Equations (4) and (5) (Table 2):
݌௕ = 3ܭ + 2 cos൫ߠൗ ൯ √ܽଶ − 3ܾ − ܽ (4)
ߠ = cos ൬ ଶඥ(௔మିଷ௕)య ൰, ܽ = ܭ஽ + ܭூ + [ܮ]் + [ܫ]் − [ܲ]், ܾ = ([ܫ]் − [ܲ]்)ܭ஽ + ([ܮ]் − [ܲ]்)ܭ஽ + ܭூܭ஽, ܿ = −ܭூܭ஽[ܲ]்
Figure S1. 19F-R2 filtered experiments. a) Relaxation dispersion experiment for 6-F-ManαOMe (the spy molecule). R2,obs of the 19F nucleus is measured for different values of ωCPMG. Ligand and protein sample concentrations were: [6-F-ManαOMe] = 400 µM, [DC-SIGN (CRDs)] = 10 µM (counting concentration of CRDs, i.e, 4 CRDs per DC-SIGN ECD tetramer). For ωCPMG > 1000 s-1, there is virtually negligible exchange contribution to R2. Therefore, all the subsequent R2 filtered experiments were carried out with τCPMG = 1/ωCPMG = 1 ms. b) KD determination of 6-F-ManαOMe with DC-SIGN. R2,obs was measured for increasing amounts of [6-F-ManαOMe]/[DC-SIGN (CRDs)] (blue dots). KD and R2,b were obtained from fitting to Equation 2, which is valid in the fast-exchange regime (Rex = 0) [39a]. The predicted values at each [6-F-ManαOMe]/[DC-SIGN (CRDs)] are shown as red stars for comparison c) Titration curves showing the variation in 19F-R2,obs of the spy molecule 6-F-ManαOMe, when increasing amounts of the competitors (I) 1, 1b-d, 2 and 3 are added to a mixture [6-F-ManαOMe] = 400 µM, [DC-SIGN (CRDs)] = 10 µM. […]

| Ki | Structure (SMILES) |
| --- | --- |
| 1.1 mM | CO[C@H]1O[C@H](CO[C@H]2O[C@H](CO)[C@@H](O)[C@H](O)[C@@H]2O)[C@@H](O)[C@H](O[C@H]2O[C@H](CO)[C@@H](O)[C@H](O)[C@@H]2O)[C@@H]1O [1b, reference compound] |
| 1 mM | CO[C@H]1O[C@H](CO[C@H]2O[C@H](CO)[C@@H](O)[C@H](O)[C@@H]2O)[C@@H](O)[C@H](O[C@H]2O[C@H](CO)[C@@H](O)[C@H](O)[C@@H]2O)[C@@H]1F [1c] |
| 1.1 mM | CO[C@H]1O[C@H](CO[C@H]2O[C@H](CO)[C@@H](O)[C@H](O)[C@@H]2O)[C@@H](O)[C@H](O[C@H]2O[C@H](CO)[C@@H](O)[C@H](O)[C@@H]2F)[C@@H]1O [1d] |
